According to patent US8163906B2, “Dihydroquinone and dihydronaphthridine inhibitors of JNK” (Roche Palo Alto, LLC, priority 2007, dated 2012):
Read-outs that look alike come from different tables or passages of the source.

What was measured:
Human JNK1α1 = Human JNK1α1 (Homo sapiens, UniProt P45983); experiment: JNK assay in vitro, phosphorylation of GST-ATF2 with [γ-33P] ATP (JNK1); format: biochemical; conditions: 1 μM ATF2, 30° C. 30 min
Procedure: (§1) JNK activity was measured by phosphorylation of GST-ATF2 (19-96) with [γ-^33P] ATP. […] Human JNK2α2 assay contains 1 nM enzyme, 1 μM ATF2, 8 μM ATP with 1 uCi [γ-^33P] ATP. Human JNK1α1 assay contains 2 nM enzyme, 1 μM ATF2, 6 μM ATP with 1 μCi [γ-^33P] ATP. […] ATP. The enzyme assay was carried out in the presence or absence of several compound concentrations. JNK and compound were pre-incubated for 10 min., followed by initiation of the enzymatic reaction by adding ATP and the substrate. The reaction mixture was incubated at 30° C. for 30 min. […] The incorporation of ^33P into ATF2 was quantified on a microplate scintillation counter (Packard Topcount). Compound inhibition potency on JNK was measured by IC50 value generated from ten concentration inhibition curves fitted into the 3-parameter model: % inhibition=Maximum/(1+(IC50/[Inhibitor])^slope). Data were analyzed on Microsoft Excel for parameter estimation.

Human JNK2α2 = Human JNK2α2 (Homo sapiens, UniProt P45984); experiment: JNK assay in vitro, phosphorylation of GST-ATF2 with [γ-33P] ATP (JNK2); format: biochemical; conditions: ATP at Km (8 μM), 1 μM ATF2, 30° C. 30 min
Procedure: as §1

[1] = ATP at Km (6 μM), read-out: IC50 vs. JNK1

Human JNK1α1, sequence (P45983 1-384 isoform P45983-2): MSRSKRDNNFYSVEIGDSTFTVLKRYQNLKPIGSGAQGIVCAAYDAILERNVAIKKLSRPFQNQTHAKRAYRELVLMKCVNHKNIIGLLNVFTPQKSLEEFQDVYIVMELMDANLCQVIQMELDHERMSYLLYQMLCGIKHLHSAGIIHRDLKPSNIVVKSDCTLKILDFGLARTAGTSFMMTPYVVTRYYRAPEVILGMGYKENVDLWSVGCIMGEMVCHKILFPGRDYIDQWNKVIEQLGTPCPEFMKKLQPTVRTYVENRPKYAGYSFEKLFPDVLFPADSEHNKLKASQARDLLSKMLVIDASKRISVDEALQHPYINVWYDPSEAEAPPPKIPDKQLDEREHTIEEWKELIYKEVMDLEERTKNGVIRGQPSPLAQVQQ
Human JNK2α2, sequence (P45984 whole entry): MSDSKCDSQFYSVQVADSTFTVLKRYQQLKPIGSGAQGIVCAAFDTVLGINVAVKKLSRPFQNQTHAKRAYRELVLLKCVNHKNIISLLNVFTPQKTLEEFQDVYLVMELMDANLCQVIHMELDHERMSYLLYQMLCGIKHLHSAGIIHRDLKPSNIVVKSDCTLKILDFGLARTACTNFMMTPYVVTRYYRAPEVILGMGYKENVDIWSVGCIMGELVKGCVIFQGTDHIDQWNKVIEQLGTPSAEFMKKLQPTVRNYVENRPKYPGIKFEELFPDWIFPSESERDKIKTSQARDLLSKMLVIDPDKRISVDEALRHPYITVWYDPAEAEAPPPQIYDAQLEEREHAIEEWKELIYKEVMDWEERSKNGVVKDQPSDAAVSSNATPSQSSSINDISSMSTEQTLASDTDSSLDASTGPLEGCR

**Q.** Which IC50 (Human JNK1α1; [1]) does the source give for `CC(=O)c1c(Cc2ccc(S(=O)(=O)N3CCN(C)CC3)cc2)c(=O)c2ccc(Cl)cc2n1-c1ccccc1` [Compound 72, 2-acetyl-7-chloro-3-[4-(4-methylpiperazine-1-sulfonyl)-benzyl]-1-phenyl-1H-quinolin-4-one] here?
**A.** 154 nM

**Q.** What about the melting point of the same molecule?
**A.** 206.3 to 208 °C

**Q.** What about the IC50 (Human JNK2α2) of the same molecule?
**A.** 336 nM

**Q.** For `COC(=O)c1c(Cc2cnn(C)c2)c(=O)c2ccc(C(F)(F)F)nc2n1-c1ccccc1` [Compound 129, 3-(1-methyl-1H-pyrazol-4-ylmethyl)-1-4-oxo-phenyl-7-trifluoromethyl-1H-[1,8]naphthyridine-2-carboxylic acid methyl ester], which IC50 (Human JNK1α1; [1]) is on record?
**A.** 252 nM

**Q.** And the IC50 (Human JNK2α2)?
**A.** 562 nM

**Q.** For `COC(=O)c1c(Cc2ccc(S(=O)(=O)N3CCNCC3)cc2)c(=O)c2ccc(Cl)cc2n1-c1ccccc1.O=C(O)C(F)(F)F` [Compound 66, 7-chloro-4-oxo-1-phenyl-3-[4-(piperazine-1-sulfonyl)-benzyl]-1,4-dihydro-quinoline-2-carboxylic acid methyl ester trifluoroacetate], which IC50 (Human JNK1α1; IC50 vs. JNK1, ATP at Km (6 μM)) is on record?
**A.** 18.1 nM

**Q.** What about the melting point of the same molecule?
**A.** 203 to 205 °C

**Q.** What about the IC50 (Human JNK2α2) of the same molecule?
**A.** 44.5 nM

**Q.** For `COC(=O)c1c(Cc2ccc(S(=O)(=O)N3CCOCC3)cc2)c(=O)c2ccc(Cl)cc2n1-c1ccccc1` [Compound 31, 7-Chloro-3-[4-(morpholine-4-sulfonyl)-benzyl]-4-oxo-1-phenyl-1,4-dihydroquinoline-2-carboxylic acid methyl ester], which IC50 (Human JNK1α1; [1]) is on record?
**A.** 52.9 nM

**Q.** And the IC50 (Human JNK2α2)?
**A.** 161 nM

**Q.** For `COC(=O)c1c(Cc2ccc(S(=O)(=O)N3CCN(C(=O)OC(C)(C)C)CC3)cc2)c(=O)c2ccc(Cl)cc2n1-c1ccccc1` [Compound 63, 3-[4-(4-tert-Butoxycarbonyl-piperazine-1-sulfonyl)-benzyl]-7-chloro-4-oxo-1-phenyl-1,4-dihydroquinoline-2-carboxylic acid methyl ester], which IC50 (Human JNK1α1; [1]) is on record?
**A.** 98.7 nM

**Q.** What about the IC50 (Human JNK2α2) of the same molecule?
**A.** 212 nM

**Q.** Which IC50 (Human JNK1α1; [1]) does the source give for `COC(=O)c1c(Cc2ccc(S(=O)(=O)C(C)CO)cc2)c(=O)c2ccc(Cl)cc2n1-c1ccccc1` (stereo not drawn) [Compound 117] here?
**A.** 32 nM

**Q.** And the melting point?
**A.** 175.3 to 180.3 °C

**Q.** And the IC50 (Human JNK2α2)?
**A.** 86.7 nM

**Q.** Which IC50 (Human JNK1α1; [1]) does the source give for `COC(=O)c1c(Cc2ccc(S(=O)(=O)N(C)C)cc2)c(=O)c2ccc(Cl)cc2n1-c1ccccc1` [Compound 32, 7-Chloro-3-(4-dimethylsulfamoyl-benzyl)-4-oxo-1-phenyl-1,4-dihydroquinoline-2-carboxylic acid methyl ester] here?
**A.** 44.5 nM

**Q.** What about the melting point of the same molecule?
**A.** 218.1 to 219.5 °C

**Q.** What about the IC50 (Human JNK2α2) of the same molecule?
**A.** 129 nM

**Q.** Which IC50 (Human JNK1α1; [1]) does the source give for `COC(=O)c1c(Cc2ccc(S(=O)(=O)NCC(C)(C)O)cc2)c(=O)c2ccc(Cl)cc2n1-c1ccccc1` [Compound 85, 3-[4-(2-Hydroxy-2-methylpropylsulfonamoyl)benzyl]-4-oxo-7-chloro-1-phenyl-1,4-dihydroquinoline-2-carboxylic acid methyl ester] here?
**A.** 48.1 nM

**Q.** What about the melting point of the same molecule?
**A.** 240 to 242.6 °C

**Q.** What about the IC50 (Human JNK2α2) of the same molecule?
**A.** 118 nM

**Q.** Which results are given for `COC(=O)c1c(Cc2ccc(S(=O)(=O)NCCO[Si](C)(C)C(C)(C)C)cc2)c(=O)c2ccc(Cl)cc2n1-c1ccccc1` [Compound 60, 3-{4-[2-(tert-Butyl-dimethyl-silanyloxy)-ethylsulfamoyl]-benzyl}-7-chloro-4-oxo-1-phenyl-1,4-dihydroquinoline-2-carboxylic acid methyl ester]?
**A.** IC50 (Human JNK1α1; [1]): 1630 nM; IC50 (Human JNK2α2): 4980 nM

**Q.** For `COC(=O)c1c(Cc2ccc(S(=O)(=O)N(C)CCO)cc2)c(=O)c2ccc(Cl)cc2n1-c1ccccc1` [Compound 59, 7-Chloro-3-{4-[(2-hydroxyethyl)-methyl-sulfamoyl]-benzyl}-4-oxo-1-phenyl-1,4-dihydroquinoline-2-carboxylic acid methyl ester], which IC50 (Human JNK1α1; [1]) is on record?
**A.** 22.6 nM

**Q.** What about the IC50 (Human JNK2α2) of the same molecule?
**A.** 61.4 nM

**Q.** With `COC(=O)C(=O)NS(=O)(=O)c1ccc(Cc2c(C(=O)OC)n(-c3ccccc3)c3cc(Cl)ccc3c2=O)cc1` [Compound 64, 7-Chloro-3-[4-(methoxyoxalyl-sulfamoyl)-benzyl]-4-oxo-1-phenyl-1,4-dihydroquinoline-2-carboxylic acid methyl ester] as the molecule, how does the IC50 (Human JNK1α1; [1]) read?
**A.** 603 nM

**Q.** What about the IC50 (Human JNK2α2) of the same molecule?
**A.** 2060 nM

**Q.** Which IC50 (Human JNK1α1; [1]) does the source give for `CNS(=O)(=O)c1ccc(Cc2c(C(=O)OC)n(-c3ccccc3)c3cc(Cl)ccc3c2=O)cc1` [Compound 44, 7-Chloro-3-(4-methylsulfamoyl-benzyl)-4-oxo-1-phenyl-1,4-dihydroquinoline-2-carboxylic acid methyl ester] here?
**A.** 49.1 nM

**Q.** Which results are given for `COC(=O)c1ccc(Cc2c(C(=O)OC)n(-c3ccccc3)c3nc(C)ccc3c2=O)cn1` [Compound 100, 3-(6-Methoxycarbonyl-pyridin-3-ylmethyl)-7-methyl-4-oxo-1-phenyl-1,4-dihydro[1,8]naphthyridine-2-carboxylic Acid Methyl Ester]?
**A.** melting point: 177 to 178 °C; IC50 (Human JNK2α2): 226 nM

**Q.** For `COC(=O)c1c(Cc2ccc(S(=O)(=O)NCC(O)CO)cc2)c(=O)c2ccc(Cl)cc2n1-c1ccccc1` (stereo not drawn) [Compound 46, 7-chloro-3-[4-(2,3-dihydroxy-propylsulfamoyl)-benzyl]-4-oxo-1-phenyl-1,4-dihydroquinoline-2-carboxylic acid methyl ester], which IC50 (Human JNK1α1; [1]) is on record?
**A.** 45.4 nM

**Q.** What about the IC50 (Human JNK2α2) of the same molecule?
**A.** 137 nM

**Q.** For `COC(=O)c1c(Cc2ccccc2)c(=O)c2ccc(Cl)cc2n1-c1ccccc1` [Compound 120], which melting point is on record?
**A.** 200 to 201 °C

**Q.** With `COC(=O)c1c(Cc2ccc(C(=O)N(C)C)nc2)c(=O)c2ccc(C)nc2n1-c1ccccc1` [Compound 103, 3-(6-Dimethylcarbamoyl-pyridin-3-ylmethyl)-7-methyl-4-oxo-1-phenyl-1,4-dihydro[1,8]naphthyridine-2-carboxylic Acid Methyl Ester] as the molecule, how does the melting point read?
**A.** 235 to 236 °C

**Q.** What does the source list for `CC(=O)c1c(Cc2ccc(S(=O)(=O)NCC(C)(C)O)cc2)c(=O)c2ccc(Cl)cc2n1-c1ccccc1` [Compound 88, 3-[4-(2-hydroxy-2-methylpropylsulfonamoyl)benzyl]-4-oxo-7-chloro-1-phenyl-2-acetyl-1,4-dihydroquinoline]?
**A.** IC50 (Human JNK1α1; [1]): 245 nM; IC50 (Human JNK2α2): 840 nM

**Q.** With `COC(=O)c1c(CN2CCC(S(C)(=O)=O)CC2)c(=O)c2ccc(F)cc2n1-c1ccccc1` [Compound 126, 7-fluoro-3-(4-methanesulfonyl-piperidin-1-ylmethyl)-4-oxo-1-phenyl-1,4-dihydro-quinoline-2-carboxylic acid methyl ester] as the molecule, how does the melting point read?
**A.** 190 to 191 °C

**Q.** For `COC(=O)c1c(Cc2ccc(C(=O)CBr)cc2)c(=O)c2ccc(C)nc2n1-c1ccccc1` [Compound 89, 3-[4-(2-bromoacetyl)-benzyl]-7-methyl-4-oxo-1-phenyl-1,4-dihydro-[1,8]naphthyridine-2-carboxylic acid methyl ester], which melting point is on record?
**A.** 189 to 191.1 °C

**Q.** With `COC(=O)c1c(Cc2ccc(OC)nc2)c(=O)c2ccc(C)nc2n1-c1ccccc1` [Compound 102, 3-(6-Methoxypyridin-3-ylmethyl)-7-methyl-4-oxo-1-phenyl-1,4-dihydro[1,8]naphthridine-2-carboxylic Acid Methyl Ester] as the molecule, how does the melting point read?
**A.** 176 to 177 °C

**Q.** For `COC(=O)c1c(CN2CCn3c(nnc3C(F)(F)F)C2)c(=O)c2ccc(F)cc2n1-c1ccccc1` [Compound 134], which melting point is on record?
**A.** 107 to 110 °C

**Q.** For `COC(=O)c1c(Cc2ccc(S(=O)(=O)C(C)CO)cc2)c(=O)c2ccc(F)cc2n1-c1ccccc1` (stereo not drawn) [Compound 118], which melting point is on record?
**A.** 193.6 to 194.9 °C

**Q.** For `CCOC(=O)c1c(Cc2ccccc2)c(=O)c2ccc(Cl)cc2n1-c1ccccc1` [Compound 121], which melting point is on record?
**A.** 179 to 180 °C
